Source: patent US8735398B2 (Bristol-Myers Squibb Company, priority 2009, dated 2014)
Read-outs that look alike come from different tables or passages of the source.

System: HCV 1b genotype
Test: HCV replicon assay (HCV-neo replicon cells, wild-type)
Assay type: cell-based, Hepatitis C virus
Details: HCV 1b genotype replicon
Description: An HCV Replicon assay was utilized in the present disclosure, and was prepared, conducted and validated as described in commonly owned PCT/US2006/022197 and in O'Boyle et al., Antimicrob. Agents Chemother, 49(4):1346-1353 (April 2005). Assay methods incorporating luciferase reporters have also been used as described (Apath.com).
HCV-neo replicon cells and replicon cells containing resistance substitutions in the NS5A region were used to test the currently described family of compounds.
The compounds were determined to have differing degrees of reduced inhibitory activity on cells containing mutations vs. the corresponding inhibitory potency against wild-type cells. Thus, the compounds of the present disclosure can be effective in inhibiting the function of the HCV NS5A protein and are understood to be as effective in combinations as previously described in application PCT/US2006/022197 and commonly owned WO 04/014852. It should be understood that the compounds of the present disclosure can inhibit multiple genotypes of HCV. […] In one embodiment, compounds of the present disclosure are inhibitory versus 1a, 1b, 2a, 2b, 3a, 4a, and 5a genotypes.

[1] = class symbol, read-out: EC50 Range against HCV 1b
[2] = Hepatitis C virus, class symbol, read-out: EC50 Range against HCV 1b

| Compound | EC50 [1] [µM] | EC50 (read-out: EC50 1b) [µM] | EC50 [2] [µM] |
| --- | --- | --- | --- |
| CCOC(=O)c1cc(C(O)C(=O)N2CCC[C@H]2C(=O)Nc2ccc(-c3cnc(-c4ccc(NC(=O)[C@@H]5CCCN5C(=O)C(O)c5c[nH]c(C(=O)OCC)c5)cc4)o3)cc2)c[nH]1 (stereo partly drawn) [Example D-12, diethyl 4,4′-(2,2′-(2S,2′S)-2,2′-(4,4′-(oxazole-2,5-diyl)bis(4,1-phenylene))bis(azanediyl)bis(oxomethylene)bis(pyrrolidine-2,1-diyl)bis(1-hydroxy-2-oxoethane-2,1-diyl))bis(1H-pyrrole-2-carboxylate)] | 1 to 10 | 2.36 |  |
| O=C(Nc1ccc(-c2cnc(-c3ccc(NC(=O)[C@@H]4CCCN4C(=O)C(O)c4ccccn4)cc3)o2)cc1)[C@@H]1CCCN1C(=O)C(O)c1ccccn1 (stereo partly drawn) [Example D-14, (2S,2′S)-N,N′-(1,3-oxazole-2,5-diyldi-4,1-phenylene)bis(1-(hydroxy(2-pyridinyl)acetyl)-2-pyrrolidinecarboxamide)] |  |  | 0.1 to 0.999 |
| O=C(Nc1ccc(-c2cnc(-c3ccc(NC(=O)[C@@H]4CCCN4C(=O)C(O)c4c[nH]c5ncccc45)cc3)o2)cc1)[C@@H]1CCCN1C(=O)C(O)c1c[nH]c2ncccc12 (stereo partly drawn) [Example D-15, (2S,2′S)-N,N′-(4,4′-(oxazole-2,5-diyl)bis(4,1-phenylene))bis(1-(2-hydroxy-2-(1H-pyrrolo[2,3-b]pyridin-3-yl)acetyl)pyrrolidine-2-carboxamide)] | 1 to 10 | 6.83 |  |
| O=C(Nc1ccc(-c2cnc(-c3ccc(NC(=O)[C@@H]4CCCN4C(=O)C(O)c4c[nH]c5cnccc45)cc3)o2)cc1)[C@@H]1CCCN1C(=O)C(O)c1c[nH]c2cnccc12 (stereo partly drawn) [Example D-17, (2S,2′S)-N,N′-(4,4′-(oxazole-2,5-diyl)bis(4,1-phenylene))bis(1-(2-hydroxy-2-(1H-pyrrolo[2,3-c]pyridin-3-yl)acetyl)pyrrolidine-2-carboxamide)] | 1 to 10 | 6.82 |  |
| C[C@H](O)[C@@H](NC(=O)c1ccccc1)C(=O)N1CCC[C@H]1C(=O)Nc1ccc(-c2cnc(-c3ccc(NC(=O)[C@@H]4CCCN4C(=O)[C@H](NC(=O)c4ccccc4)[C@H](C)O)cc3)o2)cc1 [Example D-18, (R,S,2S,2′S)-N,N′-(4,4′-(oxazole-2,5-diyl)bis(4,1-phenylene))bis(1-((2R,3S)-2-benzamido-3-hydroxybutanoyl)pyrrolidine-2-carboxamide)] | 1 to 10 | 5.96 |  |
| CN(C)CC(Oc1ccc(Cl)cc1)C(=O)N1CCC[C@H]1C(=O)Nc1ccc(-c2cnc(-c3ccc(NC(=O)[C@@H]4CCCN4C(=O)C(CN(C)C)Oc4ccc(Cl)cc4)cc3)o2)cc1 (stereo partly drawn) [Example D-19, (2S,2′S)-N,N′-(1,3-oxazole-2,5-diyldi-4,1-phenylene)bis(1-(2-(4-chlorophenoxy)-3-(dimethylamino)propanoyl)-2-pyrrolidinecarboxamide)] |  |  | 0.1 to 0.999 |
| O=C(Nc1ccc(-c2cnc(-c3ccc(NC(=O)[C@@H]4CCCN4C(=O)CC4CC4)cc3)o2)cc1)C1CCCN1C(=O)CC1CC1 (stereo partly drawn) [Example D-20, (2′S)-N,N′-(1,3-oxazole-2,5-diyldi-4,1-phenylene)bis(1-(cyclopropylacetyl)-2-pyrrolidinecarboxamide)] |  |  | 0.1 to 0.999 |
| O=C(Nc1ccc(-c2cnc(-c3ccc(NC(=O)[C@@H]4CCCN4C(=O)C4CCCCN4Cc4ccccc4)cc3)o2)cc1)[C@@H]1CCCN1C(=O)C1CCCCN1Cc1ccccc1 (stereo partly drawn) [Example D-21, (2S,2′S)-N,N′-(1,3-oxazole-2,5-diyldi-4,1-phenylene)bis(1-((1-benzyl-2-piperidinyl)carbonyl)-2-pyrrolidinecarboxamide)] |  |  | 1 to 10 |
| O=C(Nc1ccc(-c2cnc(-c3ccc(NC(=O)[C@@H]4CCCN4C(=O)C4CCCCN4CC4CCCCC4)cc3)o2)cc1)[C@@H]1CCCN1C(=O)C1CCCCN1CC1CCCCC1 (stereo partly drawn) [Example D-22, (2S,2′S)-N,N′-(1,3-oxazole-2,5-diyldi-4,1-phenylene)bis(1-((1-(cyclohexylmethyl)-2-piperidinyl)carbonyl)-2-pyrrolidinecarboxamide)] |  |  | 0.1 to 0.999 |
